According to PMC4604124, “In Vitro Characterization of the Pharmacological Properties of the Anti-Cancer Chelator, Bp4eT, and Its Phase I Metabolites” (PLoS ONE, 2015):
Values joined by “and” are separate entries in the source; they are usually repeats but may differ in a detail not shown here. Equal entries are not always repeated.

Experiments:
[1] = system: LC3-II; test: Western blot and densitometry of LC3-I/II (autophagy); type: cell-based, human; conditions: for densitometry WB, relative to NT = 1: single blot
Excerpt: Established protocols were used to prepare cell lysates and perform immunoblot analysis. Primary antibodies used include: rabbit LC3 (Cat. #: MBPM036; 1:2,000) from Abacus (Brisbane, Australia) and mouse β-actin (Cat. #: A1978, 1:10,000) from Sigma-Aldrich. The following secondary antibodies were utilized: horseradish peroxidase (HRP)-conjugated anti-rabbit (Cat. #: A6154, […]) and anti-mouse (Cat. #: A4416, 1:10,000) antibodies from Sigma-Aldrich. To ensure equal loading of proteins, membranes were probed for β-actin.

[2] = Ascorbate oxidation assay (redox activity of iron complexes); type: biochemical; conditions: for %Fe 30min: ascorbate oxidation as % of the Fe control (Fe 100%): IBE 0.1, 30 min;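 for %Fe 30min (ascorbate oxidation, Fe 100%), průměr: IBE 3 means excess free chelator over iron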;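 for %Fe 30min (ascorbate oxidation, Fe 100%): IBE 3 means excess free chelator over iron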;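 for %Fe 30min: ascorbate oxidation as % of the Fe control (Fe 100%): IBE 0.1 means iron-binding equivalents with iron in excess over chelator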;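 for Change of absorbance, odečet 0 (time 0 subtracted), čas 10, průměr: IBE 3 means excess free chelator over 10 µM FeCl3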;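 for Change of absorbance, odečet 0 (time 0 subtracted), čas 10: IBE 3 means excess free chelator over 10 µM FeCl3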
Procedure: The ascorbate oxidation assay was used to assess the redox activity of the iron complexes of the chelators using an established protocol. In brief, 100 μM ascorbic acid was prepared immediately prior to the experiment and incubated either alone or in the presence of 10 μM FeCl3 in a 50-fold molar excess (500 μM) of citrate and the chelators. Chelators were assayed at iron-binding equivalents (IBE) of 0.1 (excess of iron), 1 (fully coordinated iron—chelator complexes) and 3 (excess of free chelator). […] The decrease of absorbance between the two time points was calculated and expressed as a percentage of control without the chelator.

[3] = Supplementary Fig 2, Baf+ NT (Baf alone)
[4] = sheet IBE 1, time 10, replicates
[5] = sheet IBE 1, time 20, replicates
[6] = sheet IBE 1, time 30, replicates

## CO/C1=C\C(C)=C\[C@@H](C)[C@@H](O)[C@@H](C)C/C(C)=C/C=C/[C@H](OC)[C@@H]([C@@H](C)[C@@H](O)[C@H](C)[C@@]2(O)C[C@@H](O)[C@H](C)[C@@H](C(C)C)O2)OC1=O [Baf A1, Bafilomycin A1, reference compound]
[1]; agent alone, 72 h/37°C, MCF-7, Bp4eT 10 and 100 nM, Dp44mT 100 nM, Baf A1 100 nM
  LC3-II levels compared to the control: marked and significant (p < 0.001) increase

## CO/C1=C\C(C)=C\[C@@H](C)[C@@H](O)[C@@H](C)C/C(C)=C/C=C/[C@H](OC)[C@@H]([C@@H](C)[C@@H](O)[C@H](C)[C@@]2(O)C[C@@H](O)[C@H](C)[C@@H](C(C)C)O2)OC1=O [Baf]
[1]; Fig 7E, Baf alone
  densitometry WB, relative to NT = 1, Average: 452.435
  densitometry WB, relative to NT = 1: 493.767 and 401.641 and 461.896
[1]; [3]
  densitometry WB, relative to NT = 1, Average: 120.681
  densitometry WB, relative to NT = 1: 125.194 and 89.4619 and 147.387

## O=C(O)CN(CCN(CC(=O)O)CC(=O)O)CC(=O)O [EDTA, reference compound]
[2]; IBE 0.1
  Ascorbate oxidation, % of the control: 161%
[2]; mean (průměr)
  %Fe 30min: ascorbate oxidation as % of the Fe control (Fe 100%): 160.9%
[2]; single wells
  %Fe 30min: ascorbate oxidation as % of the Fe control (Fe 100%): 159.4% and 155.2% and 146.4% and 180.8% and 176.8% and 168.8%
[2]; IBE 0.1, time 10, mean (průměr)
  Change of absorbance after subtraction of time 0 (odečet 0): -0.05129
[2]; IBE 0.1, time 20, mean (průměr)
  Change of absorbance after subtraction of time 0 (odečet 0): -0.1014
[2]; IBE 0.1, time 30, mean (průměr)
  Change of absorbance after subtraction of time 0 (odečet 0): -0.1524
[2]; IBE 0.1, čas 0 (time 0), mean (průměr)
  Absorbance (ascorbate, λ = 265 nm): 0.8103
[2]; IBE 0.1, čas 0 (time 0), single wells
  Absorbance (ascorbate, λ = 265 nm): 0.8054 and 0.8016 and 0.8149 and 0.8186 and 0.808 and 0.8024
[2]; IBE 0.1, čas 10 (time 10), mean (průměr)
  Absorbance (ascorbate, λ = 265 nm): 0.759
[2]; IBE 0.1, čas 10 (time 10), single wells
  Absorbance (ascorbate, λ = 265 nm): 0.7602 and 0.7682 and 0.7617 and 0.7478 and 0.7502 and 0.7523
[2]; IBE 0.1, čas 20 (time 20), mean (průměr)
  Absorbance (ascorbate, λ = 265 nm): 0.7088
[2]; IBE 0.1, čas 20 (time 20), single wells
  Absorbance (ascorbate, λ = 265 nm): 0.708 and 0.7209 and 0.713 and 0.6947 and 0.6986 and 0.7025
[2]; IBE 0.1, čas 30 (time 30), mean (průměr)
  Absorbance (ascorbate, λ = 265 nm): 0.6579
[2]; IBE 0.1, čas 30 (time 30), single wells
  Absorbance (ascorbate, λ = 265 nm): 0.6595 and 0.6673 and 0.6654 and 0.6401 and 0.6465 and 0.65
[2]; IBE 1
  Ascorbate oxidation, % of the control: 417%
[2]; IBE 3
  Ascorbate oxidation, % of the control: 427%
[2]; sheet IBE 1, 30min, Fe 100%, mean
  %Fe 30min (ascorbate oxidation, Fe = 100%), průměr (mean): 416.7%
[2]; sheet IBE 1, 30min, Fe 100%, replicates
  %Fe 30min (ascorbate oxidation, Fe = 100%), single replicates: 441% and 427.1% and 415.6% and 401.4% and 393.2% and 387.9%
[2]; sheet IBE 1, time 0, mean of 9 readings
  raw reading at čas 0 (time 0), průměr (mean): 0.6818
[2]; sheet IBE 1, time 0, replicates of 2014-03-24 (two runs) and 2014-03-25
  raw reading at čas 0 (time 0), single replicates: 0.698 and 0.6881 and 0.6774 and 0.6781 and 0.6723 and 0.6948
[2]; sheet IBE 1, time 10, mean
  odečet 0 (reading minus time 0 reading) at čas 10, průměr (mean): -0.1456
[2]; sheet IBE 1, time 10, mean of 9 readings
  raw reading at čas 10 (time 10), průměr (mean): 0.5362
[2]; [4]
  odečet 0 (reading minus time 0 reading) at čas 10, single replicates: -0.1492 and -0.1466 and -0.1396 and -0.1522 and -0.1449 and -0.1427
  raw reading at čas 10 (time 10), single replicates: 0.5282 and 0.5314 and 0.5326 and 0.5426 and 0.5531 and 0.5454
[2]; sheet IBE 1, time 20, mean
  odečet 0 (reading minus time 0 reading) at čas 20, průměr (mean): -0.2713
[2]; sheet IBE 1, time 20, mean of 9 readings
  raw reading at čas 20 (time 20), průměr (mean): 0.4105
[2]; [5]
  odečet 0 (reading minus time 0 reading) at čas 20, single replicates: -0.2803 and -0.2685 and -0.2607 and -0.2802 and -0.2739 and -0.2684
  raw reading at čas 20 (time 20), single replicates: 0.3971 and 0.4095 and 0.4115 and 0.4146 and 0.424 and 0.4197
[2]; sheet IBE 1, time 30, mean
  odečet 0 (reading minus time 0 reading) at čas 30, průměr (mean): -0.3705
[2]; sheet IBE 1, time 30, mean of 9 readings
  raw reading at čas 30 (time 30), průměr (mean): 0.3114
[2]; [6]
  odečet 0 (reading minus time 0 reading) at čas 30, single replicates: -0.381 and -0.369 and -0.359 and -0.3788 and -0.3711 and -0.366
  raw reading at čas 30 (time 30), single replicates: 0.2963 and 0.3091 and 0.3132 and 0.316 and 0.3269 and 0.322
[2]; sheet IBE 3, 30min, Fe alone = 100%, mean (průměr) of the 9 replicates
  %Fe 30min (ascorbate oxidation, Fe 100%), průměr: 426.7%
[2]; sheet IBE 3, 30min, Fe alone = 100%, single replicates
  %Fe 30min (ascorbate oxidation, Fe 100%): 442% and 427.3% and 421.9% and 434.5% and 414.3% and 409.1%
[2]; sheet IBE 3, time 10 minus time 0, mean (průměr)
  Change of absorbance, odečet 0 (time 0 subtracted), čas 10, průměr: -0.1585
[2]; sheet IBE 3, time 10 minus time 0, single replicates
  Change of absorbance, odečet 0 (time 0 subtracted), čas 10: -0.1642 and -0.1578 and -0.1558 and -0.1617 and -0.1557 and -0.1533
[2]; sheet IBE 3, time 20 minus time 0, mean (průměr)
  Change of absorbance, odečet 0 (time 0 subtracted), čas 20, průměr: -0.2896
[2]; sheet IBE 3, time 20 minus time 0, single replicates
  Change of absorbance, odečet 0 (time 0 subtracted), čas 20: -0.3027 and -0.2894 and -0.2865 and -0.2919 and -0.2818 and -0.2751
[2]; sheet IBE 3, time 30 minus time 0, mean (průměr)
  Change of absorbance, odečet 0 (time 0 subtracted), čas 30, průměr: -0.3943
[2]; sheet IBE 3, time 30 minus time 0, single replicates
  Change of absorbance, odečet 0 (time 0 subtracted), čas 30: -0.4103 and -0.3966 and -0.3916 and -0.3977 and -0.3792 and -0.3744
